BindingDB's records for PubMed 34214508 (Roche Innovation Center Shanghai, 2021)

Assay: Inhibition of mouse TNF-alpha in mouse L929 cells incubated for 18 hrs by CellTitreGlo assay

SMILES: Cc1ccc(C)c(Cn2c(C(O)c3ccncc3)nc3ccc(-c4cnn(C)c4)cc32)c1 (stereo unspecified)
- IC50: 125 nM
